The text below walks through data of patent US9382290B2, “Aptamer-modified polymeric materials for the binding of factors in a wound environment” (KCI LICENSING, INC., priority 2011, dated 2016).

Where no end group is shown, it is not given here. [ ]: non-standard residue; d: D form. AEEA = NCCOCCOCC(=O)O

Assay [1] deals with granulocyte macrophage colony stimulating factor (GM-CSF) (Homo sapiens, UniProt P04141). Put plainly: GM-CSF capture by P22-modified silylated 30 PHR chitosan foam, elution and ELISA. The format is binding. The settings on record: 333 ng/mL GM-CSF incubated 24 hr; unbound washed off; eluted with imidazole-based buffer E1; 30 PHR chitosan foam silylated with compound 602. On the procedure: FIG. 8: Silylated with compound 602, 30 PHR Chitosan/P-22 captures more granulocyte macrophage colony stimulating factor (GM-CSF). Briefly, 333 ng/mL of GM-CSF was incubated with the samples for 24 hr. The unbound protein was washed off then the samples were eluted with an imidazole-based buffer, E1. The samples were cleaned up via buffer exchange with PBS and quantified by ELISA.
The test procedure used included the steps listed below: All buffers and reagents were prepared in advance, except the Sulfo-EMCS, which was reconstituted immediately before use. See Sulfo-EMCS Product Instructions (Thermo Scientific-Pierce), which is incorporated by reference herein in its entirety. • 1.1. BupH Borate Buffer: Two packs BupH Borate Buffer powderwere added to 1 L DI H2O as per manufacturer's instructions. • 1.2. Conjugation Buffer, BupH Borate Buffer/5 mM EDTA was prepared by dissolving 146 mg EDTA in 500 mL BupH Borate Buffer. • 1.3. Sulfo-EMCS, allowed to warm to RT, was reconstituted immediately before performing the Sulfo-EMCS addition step. […]
• 1.8. • 1.8.1. […] Use the coupons immediately for growth factor binding or transfer the moist coupons to a capped vial and store them at 4° C. until ready for use for no longer than. […] The unbound proteins were washed off then the samples were eluted with an imidazole-based buffer, E1 before a buffer exchange with PBS and quantification via ELISA.

Another assay addresses GM-CSF (Homo sapiens, UniProt P04141). Put plainly: GM-CSF capture by P22-linker-ROCF construct, elution and ELISA. The format is binding. The settings on record: upon elution; sample with the most capture peptide vs ROCF alone. On the procedure:
FIG. 11 provides elution results for the P22/GM-CSF experiment. P22 was obtained from the Bachem Americas Inc. 2010 peptide catalog. P22 is a GM-CSF antagonist that binds GM-CSF in an inhibitory manner. Briefly, 330 nmol P22 was conjugated to a polyurethane-based ROCF via Sulfo-EMCS chemistry. The P22-linker-foam construct was incubated with 1 μg GM-CSF overnight, washed five times, and subjected to stringent elutions. […] Upon elution, the sample with the most capture peptide, S3, outperformed ROCF alone by 49%. […] Samples S1-S3 all contained peptide-linker-foam with Sulfo-EMCS concentration increasing from S1 to S3 (S1=10× Sulfo-EMCS+P22; S2=25× Sulfo-EMCS+P22 and S3=50× Sulfo-EMCS+P22), C1 was ROCF alone, C2 was Silanated ROCF+EMCS−P22 and C3 was Silanated ROCF−EMCS+P22. There were no positive controls available for this experiment, as no technology has yet been proven to covalently conjugate peptides to polyurethane. However, positive controls were later developed for subsequent experiments based on experimental results. Data are given as mean±standard deviation.
With the -Sil bond, a “capture peptide” was next conjugated to the amino-functionalized ROCF. To do so, Sulfo-EMCS chemistry developed in Example 2 was used to conjugate a commercially available GM-CSF antagonist capture peptide, P22, to ROCF. […] The eluted GM-CSF was quantified via ELISA (FIG. 11). […]

Assay [2] relates to VEGF. Put plainly: VEGF capture by P16-linker-ROCF construct, elution and ELISA. The format is binding. The protocol:
C1 was ROCF alone; C2 was ROCF+EMCS−P16; C3 was ROCF−EMCS+P16; C4 was silanated ROCF alone; C5=silanated ROCF+EMCS−P16; C6 was silanated ROCF−EMCS+P16; 51 was 50× Sulfo-EMCS+P16; and S2 was 100× Sulfo-EMCS+P16. W=Final subsequent PBS wash. E1=50 mM Tris, 80 mM NaCl, 250 mM Imidazole, 45 min. […] E1 (right) indicates the amount of VEGF dislodged from the foam and peptide with an […] after the last wash. […] S2 bound 584 pg/mL, whereas C4 bound 321 pg/m. S2 has the highest concentration of EMCS and therefore the most covalently bound P16. […] Data are given as mean±standard deviation.
P16 was conjugated to ROCF, incubated with VEGF, washed stringently, then eluted with an […]. In this experiment, the test group (P16-linker-foam) bound 584 pg/mL, whereas the greatest negative control bound 321 pg/mL. Non-specific binding was expected due to the hydrophobic nature of both the ROCF and the target protein VEGF.
Target sequence in this assay (P15692 207-320 limits assumed): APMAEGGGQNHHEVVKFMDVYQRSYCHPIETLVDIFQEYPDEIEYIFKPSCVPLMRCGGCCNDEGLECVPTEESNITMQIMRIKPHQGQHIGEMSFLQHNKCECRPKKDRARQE

The test system of another assay is PDGF. Description: Binding of P-16 to PDGF (statement).
Assay [3] deals with VEGF. Put plainly: Binding of P-16 to VEGF (statement).
Target sequence in this assay (P15692 207-311 limits assumed): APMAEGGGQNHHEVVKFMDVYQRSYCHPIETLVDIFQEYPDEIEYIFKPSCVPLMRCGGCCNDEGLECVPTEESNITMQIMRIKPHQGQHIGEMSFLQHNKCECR

Sequence of GM-CSF (P04141 18-144, species assumed): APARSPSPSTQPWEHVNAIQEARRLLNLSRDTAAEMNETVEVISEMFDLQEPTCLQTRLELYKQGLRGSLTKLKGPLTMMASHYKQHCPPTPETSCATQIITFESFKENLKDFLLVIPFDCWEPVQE
Sequence of granulocyte macrophage colony stimulating factor (GM-CSF) (P04141 18-144, species assumed): as above

On to “NAIQEARRLLNLSRD (listed as Homo sapiens) [P22, Commercially available anti-GM-CSF peptide (Bachem), GM-CSF antagonist]”, for which the “GM-CSF captured (eluted, quantified by ELISA)” value in assay [1] is on record as 299 pg/mL. In addition, the “more GM-CSF captured than ROCF alone” value in the assay with GM-CSF is reported as 49%.
Regarding “GHQGQHIGQMS-AEEAc-Cys-NH2 (GHQGQHIGQMS[AEEA]C-NH2; N-terminus assumed; SMILES CC[C@H](C)[C@H](NC(=O)[C@H](Cc1c[nH]cn1)NC(=O)[C@H](CCC(N)=O)NC(=O)CNC(=O)[C@H](CCC(N)=O)NC(=O)[C@H](Cc1c[nH]cn1)NC(=O)CN)C(=O)NCC(=O)N[C@@H](CCC(N)=O)C(=O)N[C@@H](CCSC)C(=O)N[C@@H](CO)C(=O)NCCOCCOCC(=O)N[C@@H](CS)C(N)=O; listed as Homo sapiens) [P16, Anti-VEGF peptide designed de novo]”, the “VEGF bound (elution E1, ELISA)” value in the assay with VEGF [2] (P16 conjugated to silanated ROCF via Sulfo-EMCS, incubated with VEGF, washed, E1 = 50 mM Tris, 80 mM NaCl, 250 mM Imidazole, 45 min) stood at 584 pg/mL. For the same substance, the “more VEGF bound than greatest negative control (silanated ROCF, C4)” value in the assay with VEGF [2] (elution data) is 82%. For the same substance, in the assay with PDGF, the “binding to PDGF” value is given as “shown to bind”. For the same substance, in the assay on VEGF [3], the “binding to VEGF” value is reported as “shown to bind”.
